Reference: patent US20250143299A1, “METHODS AND COMPOSITIONS FOR CONTROLLING PESTS IN VEGETABLES” (Globachem NV, priority 2022, published 2025)

Experiments:
Format in all cases: in vivo
Aphis fabae = test: Example 5 pea trial, Aphis fabae (black bean aphid) control; details: appl. AB
Procedure: Peas—Aphis fabae (Black bean aphid)
The trial was conducted on peas, variety Batuta, 4 replicates per plot. A water volume of 200 L water/ha was used for each application. Two applications were made, Application A was made at first infestation and Application B was made 14d later. Each plot at least 12 m^2.
Insects present at the time of application: at App A 197/20 shoots, at App B in untreated: 443/20 shoots.

[1] = tested on: Leptinotarsa decemlineata; test: Example 8 Trial 1 potato, Leptinotarsa decemlineata (Colorado potato beetle) control; details: appl. AB, 8 DAB
Description: Potatoes—Leptinotarsa decemlineata (Colorado Potato Beetle)—LEPTNDE
Trial 1: Potatoes, variety Lady Amarilla, 4 replicates per plot, each plot at least 25 m^2. A water volume of 200 L water/ha was used for each application. Two applications were made at a 14d interval.
Application made at the occurrence of the insects. Application A was made at Stage BBCH 36, application B was made 14 days later at Stage BBCH 51.
Insects present at the time of application: at App A 39/10 plants at App B in untreated: 35/10 plants.

Tomato = test: Example 2 phytotoxicity, necrosis/burn (PHYNEC) on tomato; design: key: % visual leaf necrosis/discoloration vs untreated plants; details: appl. AB
Description: “Low Phytotoxicity” of pelargonic acid, as used herein means that the toxic effect on plants is absent or at such a level so as not to adversely impact the growth and/or yield of the plant under a given set of test conditions, e.g., at a given concentration of pelargonic acid. Phytotoxic effects may be measured in a number of different ways, for example, according to the principals set out in OEPP/EPPO Bulletin (2014) 44(3), 265-273 “PP 1/135 (4) Phytotoxicity assessment”. The phytotoxic effect on plants may be assessed visually as a function of the percentage of discoloration to the leaves and/or the appearance of necrosis. When the pelargonic acid compositions are applied to the foliage of the vegetable plants in accordance with the teachings herein, will typically result in a level of phytotoxicity of less than 20%, preferably less than 15%, more preferably less than 10% necrosis of the leaves in comparison to untreated plants. Preferred uses of the invention will typically result in phytotoxicity of 7% or less, whilst the most preferred uses will typically result in phytotoxicity of 5% or less. The above values are approximate as any purely visual assessment is likely to contain a degree of subjectivity.
Trial conducted in 4 replicates on plots of 25 plants each. Application was made at the occurrence of the insects.

CCCCCCCCC(=O)O [PA, pelargonic acid] was tested, and the “COUINS (count of insects), 20 shoots” value (Aphis fabae; 585 g/ha (0.9 L/ha), 3 DAA) was 7.66 % UNCK, the “COUINS (count of insects), 20 shoots” value (Aphis fabae; 585 g/ha (0.9 L/ha), 3 DAB) was 32.43 % UNCK and the “COUINS (count of insects), 20 shoots” value (Aphis fabae; 585 g/ha (0.9 L/ha), 7 DAA) was 17.73 % UNCK. For the same compound, the “COUINS (count of insects), 20 shoots” value (Aphis fabae; 585 g/ha (0.9 L/ha), 7 DAB) was 33.74 % UNCK, the “COUINS (count of insects), 20 shoots” value (Aphis fabae; 975 g/ha (1.5 L/ha), 3 DAA) was 9.21 % UNCK and the “COUINS (count of insects), 20 shoots” value (Aphis fabae; 975 g/ha (1.5 L/ha), 3 DAB) was 39.08 % UNCK. For the same compound, the “COUINS (count of insects), 20 shoots” value (Aphis fabae; 975 g/ha (1.5 L/ha), 7 DAA) was 22.27 % UNCK, the “COUINS (count of insects), 20 shoots” value (Aphis fabae; 975 g/ha (1.5 L/ha), 7 DAB) was 51.21 % UNCK and the “COUINS (count of insects), 20 shoots” value (Aphis fabae; 1300 g/ha (2.0 L/ha), 3 DAA) was 44.25 % UNCK. For the same compound, the “COUINS (count of insects), 20 shoots” value (Aphis fabae; 1300 g/ha (2.0 L/ha), 3 DAB) was 65.79 % UNCK, the “COUINS (count of insects), 20 shoots” value (Aphis fabae; 1300 g/ha (2.0 L/ha), 7 DAA) was 63.58 % UNCK and the “COUINS (count of insects), 20 shoots” value (Aphis fabae; 1300 g/ha (2.0 L/ha), 7 DAB) was 65.14 % UNCK. For the same compound, the “COUINS (count of insects), 20 shoots” value (Aphis fabae; 2600 g/ha (4.0 L/ha), 3 DAA) was 72.11 % UNCK, the “COUINS (count of insects), 20 shoots” value (Aphis fabae; 2600 g/ha (4.0 L/ha), 3 DAB) was 76.77 % UNCK and the “COUINS (count of insects), 20 shoots” value (Aphis fabae; 2600 g/ha (4.0 L/ha), 7 DAA) was 82.08 % UNCK. The “COUINS (count of insects), 20 shoots” value (Aphis fabae; 2600 g/ha (4.0 L/ha), 7 DAB) was 76.67 % UNCK, the “COUINS # L1-L3/10 plants” value ([1]; 585 g/ha (0.9 L/ha)) was 88.2 % UNCK and the “COUINS # L4/10 plants” value ([1]; 585 g/ha (0.9 L/ha)) was 57.9 % UNCK. For the same compound, the “COUINS # L1-L3/10 plants” value ([1]; 975 g/ha (1.5 L/ha)) was 17.6 % UNCK, the “COUINS # L4/10 plants” value ([1]; 975 g/ha (1.5 L/ha)) was 57.9 % UNCK and the “COUINS # L1-L3/10 plants” value ([1]; 1300 g/ha (2.0 L/ha)) was 82.4 % UNCK. The “COUINS # L4/10 plants” value ([1]; 1300 g/ha (2.0 L/ha)) was 57.9 % UNCK, the “COUINS # L1-L3/10 plants” value ([1]; 2600 g/ha (4.0 L/ha)) was 76.5 % UNCK and the “COUINS # L4/10 plants” value ([1]; 2600 g/ha (4.0 L/ha)) was 68.4 % UNCK. The “Phytotoxicity - Necrosis/burn (PHYNEC)” value (Tomato; 1300 g/ha (2 L/ha), 3 DAA) was 0, the “Phytotoxicity - Necrosis/burn (PHYNEC)” value (Tomato; 1300 g/ha (2 L/ha), 7 DAA) was 0 and the “Phytotoxicity - Necrosis/burn (PHYNEC)” value (Tomato; 1300 g/ha (2 L/ha), 7 DAB) was 0. For the same compound, the “Phytotoxicity - Necrosis/burn (PHYNEC)” value (Tomato; 1300 g/ha (2 L/ha), 14 DAA) was 0, the “Phytotoxicity - Necrosis/burn (PHYNEC)” value (Tomato; 1950 g/ha (3 L/ha), 3 DAA) was 0 and the “Phytotoxicity - Necrosis/burn (PHYNEC)” value (Tomato; 1950 g/ha (3 L/ha), 7 DAA) was 0. The “Phytotoxicity - Necrosis/burn (PHYNEC)” value (Tomato; 1950 g/ha (3 L/ha), 7 DAB) was 0, the “Phytotoxicity - Necrosis/burn (PHYNEC)” value (Tomato; 1950 g/ha (3 L/ha), 14 DAA) was 0 and the “Phytotoxicity - Necrosis/burn (PHYNEC)” value (Tomato; 2600 g/ha (4 L/ha), 3 DAA) was 0. For the same compound, the “Phytotoxicity - Necrosis/burn (PHYNEC)” value (Tomato; 2600 g/ha (4 L/ha), 7 DAA) was 0, the “Phytotoxicity - Necrosis/burn (PHYNEC)” value (Tomato; 2600 g/ha (4 L/ha), 7 DAB) was 0 and the “Phytotoxicity - Necrosis/burn (PHYNEC)” value (Tomato; 2600 g/ha (4 L/ha), 14 DAA) was 0. For the same compound, the “Phytotoxicity - Necrosis/burn (PHYNEC)” value (Tomato; 5200 g/ha (8 L/ha), 3 DAA) was 0, the “Phytotoxicity - Necrosis/burn (PHYNEC)” value (Tomato; 5200 g/ha (8 L/ha), 7 DAA) was 0 and the “Phytotoxicity - Necrosis/burn (PHYNEC)” value (Tomato; 5200 g/ha (8 L/ha), 7 DAB) was 0. The “Phytotoxicity - Necrosis/burn (PHYNEC)” value (Tomato; 5200 g/ha (8 L/ha), 14 DAA) was 0.
